Values quoted from earlier work as cited in patent US9314419B2, “Oral care compositions with a reduced bitter taste perception” (The Procter & Gamble Company, priority 2014, dated 2016).

Conditions: concentration level where the cooling effect can be clearly recognized

Compound	cooling threshold
CC(C)[C@@H]1CC[C@@H](C)C[C@@H]1O [Example 1-neomenthol, 1-neomenthol]	about 3,000 ppb
CC(C)[C@@H]1CC[C@@H](C)C[C@H]1O [L-menthol]	about 800 ppb
CC(C)[C@@H]1CC[C@@H](C)C[C@@H]1O [d-neomenthol]	about 25,000 ppb
